# From ChEMBL document CHEMBL4825684, “Design, synthesis and biological evaluation of N-anthraniloyl tryptamine derivatives as pleiotropic molecules for the therapy of malignant glioma” (Eur J Med Chem, 2021)
# Active and inactive are the calls of the source. No cut-off for these calls is given here.
# Experiments:
# U-87 MG [1] = assay: Cell cycle arrest in human U-87 MG cells assessed as accumulation at G2/M phase at 8 uM incubated for 48 hrs by PI staining based flow cytometry assay (reference value: 8%); format: functional, U-87MG ATCC
# [2] = molecular target: T1, Prostaglandin G/H synthase 2 (Homo sapiens, UniProt P35354); assay: Inhibition of human COX2 assessed as fluorescence by microplate reader
# T1 sequence (P35354 whole entry): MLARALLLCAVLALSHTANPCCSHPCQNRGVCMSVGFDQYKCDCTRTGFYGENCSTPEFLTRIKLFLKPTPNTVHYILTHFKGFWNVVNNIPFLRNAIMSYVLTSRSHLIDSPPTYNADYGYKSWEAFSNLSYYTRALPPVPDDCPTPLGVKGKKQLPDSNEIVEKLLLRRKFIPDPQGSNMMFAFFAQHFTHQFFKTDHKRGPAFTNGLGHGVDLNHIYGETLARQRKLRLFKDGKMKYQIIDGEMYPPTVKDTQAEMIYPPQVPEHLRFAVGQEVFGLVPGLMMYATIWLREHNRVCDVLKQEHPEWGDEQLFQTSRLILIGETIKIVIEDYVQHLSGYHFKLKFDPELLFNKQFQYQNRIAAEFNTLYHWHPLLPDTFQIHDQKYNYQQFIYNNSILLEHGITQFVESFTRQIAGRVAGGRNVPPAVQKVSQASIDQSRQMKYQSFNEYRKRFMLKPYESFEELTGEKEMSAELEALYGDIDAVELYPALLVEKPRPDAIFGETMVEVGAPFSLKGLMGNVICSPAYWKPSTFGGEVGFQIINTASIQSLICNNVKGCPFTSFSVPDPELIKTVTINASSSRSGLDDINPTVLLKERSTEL
# U-251 [3] = assay: Antiproliferative activity against human U-251 cells assessed as colony formation ratio at 4 uM measured after 24 hrs by plate clone formation assay relative to control; format: functional
# C6 [4] = assay: Antitumor activity against rat C6 cells inoculated orthotopic Sprague-Dawley rat model assessed as increase in E-cadherin in tumor tissue at 50 mg/kg, ip twice a day treated 3 days after tumor cell injection measured for 13 days after tumor implantation by Western blot analysis; format: functional, organism-based; details: time 3.0 day
# U-251 [5] = assay: Induction of apoptosis in human U-251 cells assessed as increase in cytochrome c release at 1 to 4 uM incubated for 48 hrs by Western blot analysis relative to control; format: functional, cell-based; details: dose 1-4 µM
# U-251 [6] = assay: Induction of apoptosis in human U-251 cells assessed as late apoptotic cells at 8 uM incubated for 48 hrs by […] double staining based flow cytometry assay (reference value: 1.39%); format: functional
# U-87MG ATCC = assay: Reduction in MMP9 expression in human U-87 MG cells incubated for 24 hrs by Western blot analysis; format: functional, cell-based; details: dose 1-4 µM
# [7] = Plasma concentration in Sprague-Dawley rat at 60 mg/kg, ip measured after 2 hrs by LC-MS analysis; format: ADME, organism-based
# [8] = Toxicity in rat C6 cells inoculated orthotopic Sprague-Dawley rat model assessed as autonomic movement at 50 mg/kg, ip twice a day administered for 13 days of tumor implantation by open field test; format: organism-based; details: in vivo, 312 h, time 13 day
# U-87 MG [9] = assay: Induction of apoptosis in human U-87 MG cells assessed as necrotic cells at 4 uM incubated for 48 hrs by Annexin VIM double staining based flow cytometry assay (reference value: 0.91%); format: functional, U-87MG ATCC
# U-87 MG [10] = assay: Induction of apoptosis in human U-87 MG cells assessed as viable cells at 8 uM incubated for 48 hrs by Annexin VIM double staining based flow cytometry assay (reference value: 97.8%); format: functional, U-87MG ATCC; details: read-out: Activity
# [11] = Tmax in Sprague-Dawley rat at 60 mg/kg, ip measured up to 24 hrs by LC-MS analysis; format: ADME, organism-based; details: in vivo
# U-251 [12] = assay: Reduction in MMP9 expression in human U-251 cells incubated for 24 hrs by Western blot analysis; format: functional, cell-based; details: dose 1-4 µM
# U-87 MG [13] = assay: Induction of apoptosis in human U-87 MG cells assessed as necrotic cells at 2 uM incubated for 48 hrs by […] double staining based flow cytometry assay (reference value: 0.91%); format: functional, U-87MG ATCC
# C6 [14] = assay: Antitumor activity against rat C6 cells inoculated orthotopic Sprague-Dawley rat model assessed as increase in rat survival at 50 mg/kg, ip twice a day administered for 25 days (reference value: 16%); format: functional; details: time 25 day
# [15] = Toxicity in rat C6 cells inoculated orthotopic Sprague-Dawley rat model assessed as changes in blood at 50 mg/kg, ip twice a day administered for 13 days of tumor implantation by routine blood test; format: organism-based; details: in vivo, 312 h, time 13 day
# C6 [16] = assay: Antiproliferative activity against rat C6 cells assessed as growth inhibition incubated for 72 hrs by CCK-8 assay; format: functional, cell-based; details: C6, 72 h
# U-251 [17] = assay: Induction of apoptosis in human U-251 cells assessed as early apoptotic cells at 4 uM incubated for 48 hrs by […] double staining based flow cytometry assay (reference value: 0.73%); format: functional
# U-87 MG [18] = assay: Induction of apoptosis in human U-87 MG cells assessed as early apoptotic cells at 4 uM incubated for 48 hrs by […] double staining based flow cytometry assay (reference value: 0.63%); format: functional, U-87MG ATCC
# [19] = molecular target: Signal transducer and activator of transcription 3 (Homo sapiens) (UniProt P40763); assay: Inhibition of STAT3 nuclear translocation in human U-87 MG cells incubated for 24 hrs by Hoechst staining based fluorescence confocal imaging analysis; format: cell-based
# Signal transducer and activator of transcription 3 (Homo sapiens), sequence (P40763 whole entry): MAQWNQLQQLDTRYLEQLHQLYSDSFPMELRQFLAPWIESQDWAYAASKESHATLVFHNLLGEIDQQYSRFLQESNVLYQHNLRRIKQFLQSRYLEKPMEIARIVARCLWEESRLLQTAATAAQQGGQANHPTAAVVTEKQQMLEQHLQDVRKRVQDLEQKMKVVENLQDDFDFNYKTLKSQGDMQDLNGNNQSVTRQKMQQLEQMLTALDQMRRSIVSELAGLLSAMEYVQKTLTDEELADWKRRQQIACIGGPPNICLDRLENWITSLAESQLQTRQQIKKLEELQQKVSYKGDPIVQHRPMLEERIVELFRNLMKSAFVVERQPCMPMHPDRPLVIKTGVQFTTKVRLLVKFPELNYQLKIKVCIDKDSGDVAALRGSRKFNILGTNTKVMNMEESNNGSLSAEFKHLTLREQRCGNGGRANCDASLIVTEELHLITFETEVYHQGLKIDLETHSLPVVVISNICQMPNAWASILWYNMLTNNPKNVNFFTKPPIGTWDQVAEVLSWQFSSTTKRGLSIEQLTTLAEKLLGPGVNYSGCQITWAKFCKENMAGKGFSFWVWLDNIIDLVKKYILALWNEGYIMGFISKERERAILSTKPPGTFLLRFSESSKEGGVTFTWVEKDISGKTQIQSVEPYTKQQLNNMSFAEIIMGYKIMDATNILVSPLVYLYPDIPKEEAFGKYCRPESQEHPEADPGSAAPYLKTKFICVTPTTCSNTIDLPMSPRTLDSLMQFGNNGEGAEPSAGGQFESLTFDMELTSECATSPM
# [20] = molecular target: Tyrosine-protein kinase JAK2 (Homo sapiens) (UniProt O60674); assay: Inhibition JAK2 phosphorylation in human U-87 MG cells incubated up to 8 hrs by Western blot analysis; format: cell-based; details: time hrs <=8
# Tyrosine-protein kinase JAK2 (Homo sapiens), sequence (O60674 whole entry): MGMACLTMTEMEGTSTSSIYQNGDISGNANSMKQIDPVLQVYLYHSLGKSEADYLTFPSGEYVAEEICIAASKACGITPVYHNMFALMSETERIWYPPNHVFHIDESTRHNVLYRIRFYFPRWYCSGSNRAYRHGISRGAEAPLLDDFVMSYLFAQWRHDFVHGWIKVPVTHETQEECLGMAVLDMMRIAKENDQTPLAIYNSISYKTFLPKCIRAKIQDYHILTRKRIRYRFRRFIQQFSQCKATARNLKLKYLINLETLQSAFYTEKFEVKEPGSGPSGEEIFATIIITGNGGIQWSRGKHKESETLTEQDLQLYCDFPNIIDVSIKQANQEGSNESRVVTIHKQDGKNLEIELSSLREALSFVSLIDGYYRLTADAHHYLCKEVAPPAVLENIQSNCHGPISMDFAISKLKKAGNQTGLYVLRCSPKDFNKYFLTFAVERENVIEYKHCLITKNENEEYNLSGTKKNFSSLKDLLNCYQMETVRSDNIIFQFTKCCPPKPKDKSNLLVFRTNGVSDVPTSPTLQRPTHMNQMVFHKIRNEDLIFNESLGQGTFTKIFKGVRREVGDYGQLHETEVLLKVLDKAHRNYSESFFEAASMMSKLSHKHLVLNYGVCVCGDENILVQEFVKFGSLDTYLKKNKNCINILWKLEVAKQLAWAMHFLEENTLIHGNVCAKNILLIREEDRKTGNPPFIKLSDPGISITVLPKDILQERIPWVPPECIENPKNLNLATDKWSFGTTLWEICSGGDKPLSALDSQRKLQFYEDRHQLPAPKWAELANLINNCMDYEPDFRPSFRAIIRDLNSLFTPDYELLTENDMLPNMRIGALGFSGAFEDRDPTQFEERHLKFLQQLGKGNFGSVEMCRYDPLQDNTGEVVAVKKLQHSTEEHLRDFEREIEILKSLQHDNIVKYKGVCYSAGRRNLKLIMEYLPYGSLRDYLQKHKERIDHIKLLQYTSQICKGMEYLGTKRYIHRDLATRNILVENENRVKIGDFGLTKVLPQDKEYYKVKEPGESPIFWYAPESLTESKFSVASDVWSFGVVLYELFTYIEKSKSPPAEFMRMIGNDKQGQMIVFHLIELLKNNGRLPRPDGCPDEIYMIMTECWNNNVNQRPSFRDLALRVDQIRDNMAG
# [21] = molecular target: Signal transducer and activator of transcription 3 (Homo sapiens) (UniProt P40763); assay: Inhibition of STAT3 nuclear translocation in human U251 cells incubated for 24 hrs by Hoechst staining based fluorescence confocal imaging analysis; format: cell-based; details: U-251
# [22] = Plasma concentration in Sprague-Dawley rat at 60 mg/kg, ip measured up to 24 hrs by LC-MS analysis; format: ADME, organism-based
# C6 [23] = assay: Antitumor activity against rat C6 cells inoculated orthotopic Sprague-Dawley rat model assessed as inhibition of angiogenesis brain tissue at 50 mg/kg, ip twice a day administered for 13 days of tumor implantation; format: functional, organism-based; details: time 13.0 day
# U-251 [24] = assay: Cytotoxicity against human U-251 cells assessed as cell viability at 4 uM measured up to 24 hrs; format: functional; details: U-251, 24 h, time hrs <=24, read-out: Activity
# [25] = Acute toxicity in Kunming mouse assessed mortality at 1000 mg/kg, ip measured for 14 days; format: organism-based; details: in vivo, 336 h, time 14 day
# U-87 MG [26] = assay: Induction of apoptosis in human U-87 MG cells assessed as viable cells at 2 uM incubated for 48 hrs by Annexin VIM double staining based flow cytometry assay (reference value: 97.8%); format: functional, U-87MG ATCC; details: read-out: Activity
# U-251 [27] = assay: Induction of apoptosis in human U-251 cells assessed as viable cells at 2 uM incubated for 48 hrs by […] double staining based flow cytometry assay (reference value: 96.6%); format: functional; details: read-out: Activity
# U-251 [28] = assay: Induction of apoptosis in human U-251 cells assessed as increase in ROS generation at 1 to 4 uM incubated for 48 hrs […] relative to control; format: functional, cell-based; details: dose 1-4 µM
# U-251 [29] = assay: Antimigratory activity against human U-251 cells assessed as inhibition of migration incubated for 24 hrs by matrigel trans well plate assay; format: functional, cell-based; details: dose 1-4 µM
compound,measurement,setting,value
COc1cc(Nc2ccccc2C(=O)NCCc2c[nH]c3ccccc23)cc(OC)c1OC,Activity,U-87 MG [1],68.2%
same,IC50,[2],8.29 µM
same,Activity,U-251 [3],5.33%
same,Activity,C6 [4],Active
same,Activity,U-251 [5],Active
same,Activity,U-251 [6],26.2%
same,Activity,U-87MG ATCC,Dose-Dependent Effect
same,concentration at 2 h,[7],520 ng/mL
same,Activity,[8],Non-Toxic
same,Activity,U-87 MG [9],1.86%
same,viability at 8 µM,U-87 MG [10],77.7%
same,Tmax,[11],25.2 min
same,Activity,U-251 [12],Dose-Dependent Effect
same,Activity,U-87 MG [13],1.23%
same,Activity,C6 [14],66%
same,Activity,[15],Non-Toxic
same,IC50,C6 [16],4.23 µM
same,Activity,U-251 [17],7.95%
same,Activity,U-87 MG [18],6.09%
same,inhibition,[19],Active
same,inhibition,[20],Active
same,inhibition,[21],Active
same,concentration at 24 h,[22],200 ng/mL
same,Activity,C6 [23],Active
same,viability at 4 µM,U-251 [24],80%
same,Activity,[25],Non-Toxic
same,viability at 2 µM,U-87 MG [26],95.1%
same,viability at 2 µM,U-251 [27],73.4%
same,Activity,U-251 [28],Active
same,Activity,U-251 [29],Active
